Laboratory results taken from US4731109A, “Herbicidal 2-haloacetanilides” (Monsanto Company, priority 1982, dated 1988).

Experiments:
corn = test: Greenhouse pre-emergence GR15/GR85 selectivity test; assay type: in vivo
From the text: (§1) A good grade of top soil is placed in aluminum pans and compacted to a depth of three-eighths to one-half inch from the top of the pan. On the top of the soil is placed a number of seeds or vegetative propagules of various plant species. The soil required to level fill the pans after seeding or adding vegetative propagules is weighed into a pan. The soil and a known amount of the active ingredient applied in a solvent or as a wettable powder suspension are thoroughly mixed, and used to cover the prepared pans. After treatment, the pans are given an initial overhead irrigation of eater, equivalent to one-fourth inch (0.64 cm) rainfall, then watered by subirrigation as need to give adequate moisture for germination and growth. As an alternative procedure, the overhead irrigation may be omitted. Observations are made about 2-3 weeks after seeding and treatment.
(§2) In the discussion and tables of data below, reference is made to herbicide application rates symbolized as "GR15 " and "GR85 "; these rates are given in kilograms per hectare (kg/ha) which are convertible into pounds per acre (lbs/A) by dividing the kg/ha rate by 1.12.
(§3) A further guide to the effectiveness of a chemical as a selective herbicide is the "selectivity factor" ("SF") for a herbicide in given crops and weeds. The selectivity factor is a measure of the relative degree of crop safety and weed injury and is expressed in terms of the GR15 /GR85 ratio, i.e., the GR15 rate for the crop divided by the GR85 rate for the weed, both rates in kg/ha (lb/A). In the tables below, selectivity factors are shown in parenthesis following the GR85 rate for each weed; the symbol "NS" indicates "non-selective". Marginal or undetermined selectivity is indicated by a dash (--).
In Table IV pre-emergence herbicidal activity data are presented comparing the relative efficacy of the invention compounds and said prior art compounds as selective herbicides against the resistant and troublesome perennial weeds quackgrass and yellow nutsedge in soybeans and corn, respectively. These weeds are commonly associated with such major crops as corn and soybeans. The test data in Table IV were obtained under identical procedural conditions and represent two replicate runs (except for the compound of Example 9 which was present in one comparative test). The test procedure was the same as described for Tables II and III but modified by the application of an initial overhead irrigation equivalent to 1/4" (0.64 cm) rainfall; subsequent watering was accomplished by subirrigation. "NS" means non-selective within the test limits.
(§4) Additionally, pre-emergence herbicidal data from other tests have established that compounds according to this invention also selectively suppress quackgrass, yellow nutsedge and/or other weeds in one or more of the crops cotton, peanuts, bush beans and/or rape. For example, in Table VI are presented data showing the herbicidal selectivity of the compounds of Examples 1 and 2 against quackgrass in rape and snap beans. Unless otherwise noted; greenhouse tests in Table VI and in other tables below involved herbicide treatments by soil incorporation and an initial overhead irrigation followed by subirrigation as described above.

rape = test: as above; assay type: in vivo; conditions: Table XV
From the text: as §1, §2, §3, §4
(§5) In another greenhouse test, the compounds of Examples 3-5, 9 and 10 were tested for their herbicidal efficacy against a variety of resistant annual and perennial weeds in rape.

purple nutsedge = test: as above; assay type: in vivo; conditions: Table XV; for selectivity factor (GR15/GR85): in rape
From the text: as §1, §2, §3, §4
In other greenhouse tests, compounds according to this invention have shown selective control of a variety of annual and perennial weeds in various crops. As further illustrative, the compound of Example 1 selectively controlled purple nutsedge in both corn nd soybeans, the respective crop/weed GR15 /GR85 ratios (expressed in kg/ha) being 0.67/0.25 (S.F.=2.7) in corn and 1.1/0.25 (S.F.=4.5) in soybeans. The compound of Example 8 has shown selective control of yellow nutsedge and quackgrass in corn and soybeans. The respective crop/yellownutsedge GR15 /GR85 ratios being >2.2/0.95 (S.F.=2.5) in corn; 2.2/0.5 (SF=4.5) in soybeans and the respective GR15 /GR85 ratios for both corn and soybeans in quackgrass being >2.2/0.5 (S.F.=4.5). In a test against yellow nutsedge in cotton, the GR15 /GR85 ratio (average of two replicates) was 2.0/0.95 (S.F.=2).
as §5

Texas panicum = test: as above; assay type: in vivo; conditions: Table XVI
From the text: as §1, with “After treatment, the pans are given an initial overhead irrigation of eater, equivalent to one-fourth inch (0.64 cm) rainfall, then watered by subirrigation as need to give adequate moisture for germination and growth.” left out
as §3
(§6) Unless otherwise noted; greenhouse tests in Table VI and in other tables below involved herbicide treatments by soil incorporation and an initial overhead irrigation followed by subirrigation as described above.

alexandergrass = test: as above; assay type: in vivo; conditions: Table XV; for selectivity factor (GR15/GR85): in rape
From the text: as §1, with “After treatment, the pans are given an initial overhead irrigation of eater, equivalent to one-fourth inch (0.64 cm) rainfall, then watered by subirrigation as need to give adequate moisture for germination and growth.” left out
as §3, §6

fall panicum = test: as above; assay type: in vivo; conditions: Table XVI
From the text: as §1, with “After treatment, the pans are given an initial overhead irrigation of eater, equivalent to one-fourth inch (0.64 cm) rainfall, then watered by subirrigation as need to give adequate moisture for germination and growth.” left out
as §3, §6

itchgrass = test: as above; assay type: in vivo; conditions: Table XVI
From the text: as §1, with “After treatment, the pans are given an initial overhead irrigation of eater, equivalent to one-fourth inch (0.64 cm) rainfall, then watered by subirrigation as need to give adequate moisture for germination and growth.” left out
as §3, §6

red rice = test: as above; assay type: in vivo; conditions: Table XVI
From the text: as §1, with “After treatment, the pans are given an initial overhead irrigation of eater, equivalent to one-fourth inch (0.64 cm) rainfall, then watered by subirrigation as need to give adequate moisture for germination and growth.” left out
as §3, §6

seedling johnsongrass = test: as above; assay type: in vivo; conditions: Table XVI
From the text: as §1, with “After treatment, the pans are given an initial overhead irrigation of eater, equivalent to one-fourth inch (0.64 cm) rainfall, then watered by subirrigation as need to give adequate moisture for germination and growth.” left out
as §3, §6

shattercane = test: as above; assay type: in vivo; conditions: Table XVI
From the text: as §1, with “After treatment, the pans are given an initial overhead irrigation of eater, equivalent to one-fourth inch (0.64 cm) rainfall, then watered by subirrigation as need to give adequate moisture for germination and growth.” left out
as §3, §6

wild proso millet = test: as above; assay type: in vivo, wild proso millet (panicum milicaeum); conditions: Table XVI
From the text: as §1, with “After treatment, the pans are given an initial overhead irrigation of eater, equivalent to one-fourth inch (0.64 cm) rainfall, then watered by subirrigation as need to give adequate moisture for germination and growth.” left out
as §3, §6

Quackgrass = test: Herbicidal effect in a variety of soil types; assay type: in vivo; conditions: for selectivity factor (GR15/GR85): in soybeans
From the text: The herbicide treatments were by soil incorporation with seeds planted 0.375 in (0.95 cm) deep, with 0.25 in (0.64 cm overhead irrigation. Observations were made about three weeks after treatment. Selectivity factors are shown in parenthesis.

soybeans = test: Herbicidal effect in a variety of soil types; assay type: in vivo
[1] = Drummer silty clay, Table XVII C
[2] = Wabash silty clay, Table XVII C
[3] = Wabash silty clay, Table XVII B

CCOCN(C(=O)CCl)c1c(CC)cccc1C(F)(F)F [Example 9, N--(ethoxymethyl)-2'-trifluoromethyl-6'-ethyl-2-chloroacetanilide]
GR15 (corn; Table IV, Replicate #2): 2.2 Kg/Ha
GR15 (corn; Table XII): 2.5 Kg/Ha
GR15 (corn; Table XIII): 1.7 Kg/Ha
GR15 Rate (rape): 0.98 Kg/Ha
GR85 Rate (purple nutsedge): 0.19 Kg/Ha
selectivity factor (GR15/GR85) (purple nutsedge): 5.2
GR85 Rate (Texas panicum): 0.56 Kg/Ha
selectivity factor (GR15/GR85) (Texas panicum; in lima beans): 1.3
selectivity factor (GR15/GR85) (Texas panicum; in peanuts): 1.6
GR85 Rate (alexandergrass): 0.19 Kg/Ha
selectivity factor (GR15/GR85) (alexandergrass): 5.2
GR85 Rate (fall panicum): 0.13 Kg/Ha
selectivity factor (GR15/GR85) (fall panicum; in lima beans): 5.8
selectivity factor (GR15/GR85) (fall panicum; in peanuts): 6.9
GR85 Rate (itchgrass): 0.53 Kg/Ha
selectivity factor (GR15/GR85) (itchgrass; in lima beans): 1.4
selectivity factor (GR15/GR85) (itchgrass; in peanuts): 1.7
GR85 Rate (red rice): 0.42 Kg/Ha
selectivity factor (GR15/GR85) (red rice; in lima beans): 1.8
selectivity factor (GR15/GR85) (red rice; in peanuts): 2.1
GR85 Rate (seedling johnsongrass): 0.25 Kg/Ha
selectivity factor (GR15/GR85) (seedling johnsongrass; in lima beans): 3
selectivity factor (GR15/GR85) (seedling johnsongrass; in peanuts): 3.6
GR85 Rate (shattercane): 0.21 Kg/Ha
selectivity factor (GR15/GR85) (shattercane; in lima beans): 3.6
selectivity factor (GR15/GR85) (shattercane; in peanuts): 4.3
GR85 Rate (wild proso millet): 0.56 Kg/Ha
selectivity factor (GR15/GR85) (wild proso millet; in lima beans): 1.3
selectivity factor (GR15/GR85) (wild proso millet; in peanuts): 1.6
GR85 (Quackgrass; [1]): 0.17 Kg/Ha
GR85 (Quackgrass; Florida muck, Table XVII C): 0.73 Kg/Ha
GR85 (Quackgrass; Ray silt loam, Table XVII C): 0.13 Kg/Ha
GR85 (Quackgrass; Sarpy silty clay, Table XVII C): 0.13 Kg/Ha
GR85 (Quackgrass; [2]): 0.24 Kg/Ha
selectivity factor (GR15/GR85) (Quackgrass; [1]): > 13
selectivity factor (GR15/GR85) (Quackgrass; Florida muck, Table XVII C): > 3
selectivity factor (GR15/GR85) (Quackgrass; Ray silt loam, Table XVII C): > 16.5
selectivity factor (GR15/GR85) (Quackgrass; Sarpy silty clay, Table XVII C): > 16.5
selectivity factor (GR15/GR85) (Quackgrass; [2]): 12.5
GR15 (soybeans; [1]): > 2.2 Kg/Ha
GR15 (soybeans; Florida muck, Table XVII C): > 2.2 Kg/Ha
GR15 (soybeans; Ray silt loam, Table XVII C): > 2.2 Kg/Ha
GR15 (soybeans; Sarpy silty clay, Table XVII C): > 2.2 Kg/Ha
GR15 (soybeans; [2]): 3.0 Kg/Ha

CCCOCN(C(=O)CCl)c1c(C)cccc1C(F)(F)F [Example 3, N--(n-propoxymethyl)-2'-trifluoromethyl-6'-methyl-2-chloroacetanilide]
GR15 (corn; Table IV, Replicate #1): 0.78 Kg/Ha
GR15 (corn; Table IV, Replicate #2): 0.73 Kg/Ha
GR15 Rate (rape): 0.90 Kg/Ha
GR85 Rate (purple nutsedge): 0.12 Kg/Ha
selectivity factor (GR15/GR85) (purple nutsedge): 7.5
GR85 Rate (Texas panicum): 0.43 Kg/Ha
selectivity factor (GR15/GR85) (Texas panicum; in lima beans): 1.1
selectivity factor (GR15/GR85) (Texas panicum; in peanuts): > 2.6
GR85 Rate (alexandergrass): 0.14 Kg/Ha
selectivity factor (GR15/GR85) (alexandergrass): 6.3
GR85 Rate (fall panicum): 0.08 Kg/Ha
selectivity factor (GR15/GR85) (fall panicum; in lima beans): 6
selectivity factor (GR15/GR85) (fall panicum; in peanuts): > 14
GR85 Rate (itchgrass): 0.51 Kg/Ha
selectivity factor (GR15/GR85) (itchgrass; in lima beans): NS (non-selective)
selectivity factor (GR15/GR85) (itchgrass; in peanuts): > 2.2
GR85 Rate (red rice): 0.37 Kg/Ha
selectivity factor (GR15/GR85) (red rice; in lima beans): 1.3
selectivity factor (GR15/GR85) (red rice; in peanuts): > 3
GR85 Rate (seedling johnsongrass): 0.23 Kg/Ha
selectivity factor (GR15/GR85) (seedling johnsongrass; in lima beans): 2.1
selectivity factor (GR15/GR85) (seedling johnsongrass; in peanuts): > 4.9
GR85 Rate (shattercane): 0.11 Kg/Ha
selectivity factor (GR15/GR85) (shattercane; in lima beans): 4.5
selectivity factor (GR15/GR85) (shattercane; in peanuts): > 10.2
GR85 Rate (wild proso millet): 0.27 Kg/Ha
selectivity factor (GR15/GR85) (wild proso millet; in lima beans): 1.8
selectivity factor (GR15/GR85) (wild proso millet; in peanuts): > 4.2
GR85 (Quackgrass; Florida muck, Table XVII B): 1.1 Kg/Ha
GR85 (Quackgrass; Florida sand, Table XVII B): 0.72 Kg/Ha
GR85 (Quackgrass; [3]): 0.22 Kg/Ha
selectivity factor (GR15/GR85) (Quackgrass; Florida muck, Table XVII B): > 2
selectivity factor (GR15/GR85) (Quackgrass; Florida sand, Table XVII B): 2.5
selectivity factor (GR15/GR85) (Quackgrass; [3]): 9
GR15 (soybeans; Florida muck, Table XVII B): > 2.2 Kg/Ha
GR15 (soybeans; Florida sand, Table XVII B): 2.0 Kg/Ha
GR15 (soybeans; [3]): 2.0 Kg/Ha
